Patent US8952024B2, “Herbicidal pyrimidone derivatives” (E I du Pont de Nemours and Company, priority 2009, dated 2015)

Experiments:
Format in all cases: in vivo
[1] = test system: Italian ryegrass (Lolium multiflorum); assay: Test C plant response; details: Postemergence, scale 0 to 100
In short: (§1)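 Compounds in non-phytotoxic solvent mixture with surfactant. Visual rating versus controls after 14 days in controlled environment, scale 0 (no effect) to 100 (complete control).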

[2] = test system: canarygrass (Phalaris minor); assay: Test C plant response; details: Postemergence, scale 0 to 100
In short: as §1

[3] = test system: galium (catchweed bedstraw, Galium aparine); assay: Test C plant response; details: Postemergence, scale 0 to 100
In short: as §1

[4] = test system: winter barley (Hordeum vulgare); assay: Test C plant response; details: Postemergence, scale 0 to 100
In short: as §1

[5] = test system: Russian thistle (Salsola kali); assay: Test B pre-/postemergence plant response; details: Preemergence; for Russian Thistle plant response rating: 250 g ai/ha, 0 to 100 scale
In short: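 Visually scored on a 0 to 100 scale after 13 to 15 days in greenhouse versus controls. Treatments were preemergence on seeded loam/sand soil and postemergence on 1- to 4-leaf plants.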

[6] = test system: Italian ryegrass (Lolium multiflorum); assay: Test D pre-/postemergence plant response
In short: (§2)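 Seeds in loam–sand blend treated preemergence, and plants at 1- to 4-leaf stage (2–18 cm) treated postemergence, with compounds in non-phytotoxic solvent with surfactant. Greenhouse for 14–21 days, then visual rating against controls, 0 (no effect) to 100 (complete control).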

[7] = test system: chickweed (common chickweed, Stellaria media); assay: Test D pre-/postemergence plant response; details: Postemergence
In short: as §2

[8] = test system: field bindweed (Convolvulus arvensis); assay: Test D pre-/postemergence plant response
In short: as §2

[9] = test system: mallow (common mallow, Malva sylvestris); assay: Test D pre-/postemergence plant response
In short: as §2

[10] = 62 g ai/ha, scale 0 to 100 (0 no effect, 100 complete control)
[11] = 31 g ai/ha, scale 0 to 100 (0 no effect, 100 complete control)
[12] = 125 g ai/ha, scale 0 to 100, 0 no effect, 100 complete control
[13] = Postemergence, 31 g ai/ha, scale 0 to 100
[14] = Postemergence, 62 g ai/ha, scale 0 to 100 (0 no effect, 100 complete control)
[15] = Postemergence, 125 g ai/ha, scale 0 to 100 (0 no effect, 100 complete control)
[16] = Postemergence, 250 g ai/ha, scale 0 to 100 (0 no effect, 100 complete control)
[17] = Preemergence, 125 g ai/ha, scale 0 to 100
[18] = Preemergence, 250 g ai/ha, scale 0 to 100
[19] = Preemergence, 62 g ai/ha, scale 0 to 100

3-cyclohexyl-5-[(2-hydroxy-6-oxo-1-cyclohexen-1-yl)carbonyl]-2-phenyl-4(3H)-pyrimidinone [Compound 128]
Plant response rating: Ryegrass, Italian ([1]; 31 g ai/ha): 5
Plant response rating: Ryegrass, Italian ([1]; 16 g ai/ha): 0
Plant response rating: Ryegrass, Italian ([1]; 62 g ai/ha): 30
Plant response rating: Ryegrass, Italian ([1]; 125 g ai/ha): 30
Plant response rating: Canarygrass ([2]; 31 g ai/ha): 5
Plant response rating: Canarygrass ([2]; 16 g ai/ha): 5
Plant response rating: Canarygrass ([2]; 62 g ai/ha): 10
Plant response rating: Canarygrass ([2]; 125 g ai/ha): 10
Plant response rating: Galium ([3]; 31 g ai/ha): 30
Plant response rating: Galium ([3]; 16 g ai/ha): 20
Plant response rating: Galium ([3]; 62 g ai/ha): 65
Plant response rating: Galium ([3]; 125 g ai/ha): 65
Plant response rating: Barley, Winter ([4]; 31 g ai/ha): 20
Plant response rating: Barley, Winter ([4]; 16 g ai/ha): 0
Plant response rating: Barley, Winter ([4]; 62 g ai/ha): 40
Plant response rating: Barley, Winter ([4]; 125 g ai/ha): 60

COc1ccc(-n2c(-c3ccccc3)ncc(C(=O)C3=C(O)CCCC3=O)c2=O)cc1 [Compound 4, 5-[(2-hydroxy-6-oxo-cyclohexen-1-yl)carbonyl]-3-(4-methoxyphenyl)-2-phenyl-4(3H)-pyrimidinone]
Plant response rating: Ryegrass, Italian ([1]; 31 g ai/ha): 10
Plant response rating: Ryegrass, Italian ([1]; 125 g ai/ha): 15
Plant response rating: Canarygrass ([2]; 31 g ai/ha): 0
Plant response rating: Canarygrass ([2]; 125 g ai/ha): 90
Plant response rating: Galium ([3]; 31 g ai/ha): 65
Plant response rating: Galium ([3]; 125 g ai/ha): 90
Plant response rating: Barley, Winter ([4]; 31 g ai/ha): 5
Plant response rating: Barley, Winter ([4]; 125 g ai/ha): 35

Cc1ccc(-n2c(-c3ccccc3)ncc(C(=O)C3=C(O)CCCC3=O)c2=O)cc1 [Compound 8]
Plant response rating: Ryegrass, Italian ([1]; 31 g ai/ha): 0
Plant response rating: Ryegrass, Italian ([1]; 16 g ai/ha): 0
Plant response rating: Ryegrass, Italian ([1]; 62 g ai/ha): 20
Plant response rating: Ryegrass, Italian ([1]; 125 g ai/ha): 35
Plant response rating: Canarygrass ([2]; 31 g ai/ha): 5
Plant response rating: Canarygrass ([2]; 16 g ai/ha): 0
Plant response rating: Canarygrass ([2]; 62 g ai/ha): 10
Plant response rating: Canarygrass ([2]; 125 g ai/ha): 10
Plant response rating: Galium ([3]; 31 g ai/ha): 75
Plant response rating: Galium ([3]; 16 g ai/ha): 50
Plant response rating: Galium ([3]; 62 g ai/ha): 90
Plant response rating: Galium ([3]; 125 g ai/ha): 90
Plant response rating: Barley, Winter ([4]; 31 g ai/ha): 20
Plant response rating: Barley, Winter ([4]; 16 g ai/ha): 0
Plant response rating: Barley, Winter ([4]; 62 g ai/ha): 20
Plant response rating: Barley, Winter ([4]; 125 g ai/ha): 40

Cc1cc(C)cc(-n2c(-c3ccccc3)ncc(C(=O)C3=C(O)CCCC3=O)c2=O)c1 [Compound 33]
Plant response rating: Ryegrass, Italian ([1]; 31 g ai/ha): 0
Plant response rating: Ryegrass, Italian ([1]; 16 g ai/ha): 0
Plant response rating: Ryegrass, Italian ([1]; 62 g ai/ha): 10
Plant response rating: Ryegrass, Italian ([1]; 125 g ai/ha): 10
Plant response rating: Canarygrass ([2]; 31 g ai/ha): 0
Plant response rating: Canarygrass ([2]; 16 g ai/ha): 0
Plant response rating: Canarygrass ([2]; 62 g ai/ha): 5
Plant response rating: Canarygrass ([2]; 125 g ai/ha): 5
Plant response rating: Galium ([3]; 31 g ai/ha): 40
Plant response rating: Galium ([3]; 16 g ai/ha): 35
Plant response rating: Galium ([3]; 62 g ai/ha): 50
Plant response rating: Galium ([3]; 125 g ai/ha): 60
Plant response rating: Barley, Winter ([4]; 31 g ai/ha): 0
Plant response rating: Barley, Winter ([4]; 16 g ai/ha): 0
Plant response rating: Barley, Winter ([4]; 62 g ai/ha): 0
Plant response rating: Barley, Winter ([4]; 125 g ai/ha): 5

O=C1CCCC(O)=C1C(=O)c1cnc(-c2cccc(Cl)c2)n(-c2ccc(Cl)cc2)c1=O [Compound 64]
Plant response rating, Russian Thistle [5, 10]: 0

CCCCc1ncc(C(=O)C2=C(O)CCCC2=O)c(=O)n1-c1ccc(C)cc1 [Compound 67]
Plant response rating, Russian Thistle [5, 11]: 85

CCCc1ncc(C(=O)C2=C(O)CCCC2=O)c(=O)n1-c1ccccc1C [Compound 73]
Plant response rating, Russian Thistle [5, 11]: 0

CCCc1ncc(C(=O)C2=C(O)CCCC2=O)c(=O)n1CC1CCCO1 (stereo not shown) [Compound 74]
Plant response rating, Russian Thistle [5, 11]: 0
Plant response rating, Russian Thistle [5, 10]: 80
Plant response rating, Russian Thistle [5, 12]: 90
Russian Thistle plant response rating [5]: 98

COCCn1c(-c2cc(F)cc(F)c2)ncc(C(=O)C2=C(O)CCCC2=O)c1=O [Compound 119]
Plant response rating, Russian Thistle [5, 11]: 100
Plant response rating, Russian Thistle [5, 10]: 100
Plant response rating, Russian Thistle [5, 12]: 100
Russian Thistle plant response rating [5]: 100

COCCCn1c(-c2cc(F)cc(F)c2)ncc(C(=O)C2=C(O)CCCC2=O)c1=O [Compound 120]
Plant response rating, Russian Thistle [5, 10]: 80
Plant response rating, Russian Thistle [5, 12]: 80

COCCn1c(-c2cc(F)cc(F)c2)ncc(C(=O)C2=C(O)C3CCC(C3)C2=O)c1=O (stereo not shown) [Compound 243, 2-(3,5-difluorophenyl)-5-[(2-hydroxy-4-oxobicyclo[3.2.1]oct-2-en-3-yl)carbonyl]-3-(2-methoxyethyl)-4(3H)-pyrimidinone]
Plant response rating, Russian Thistle [5, 11]: 100
Plant response rating, Russian Thistle [5, 10]: 100
Plant response rating, Russian Thistle [5, 12]: 100
Russian Thistle plant response rating [5]: 100
Plant response rating, Ryegrass, Italian [6, 13]: 0
Plant response rating, Ryegrass, Italian [6, 14]: 20
Plant response rating, Ryegrass, Italian [6, 15]: 30
Plant response rating, Ryegrass, Italian [6, 16]: 65
Plant response rating, Ryegrass, Italian [6, 17]: 98
Plant response rating, Ryegrass, Italian [6, 18]: 100
Plant response rating, Chickweed ([7]; 31 g ai/ha, scale 0 to 100): 35
Plant response rating, Chickweed [7, 10]: 50
Plant response rating, Chickweed ([7]; 125 g ai/ha, scale 0 to 100 (0 no effect, 100 complete control)): 60
Plant response rating, Chickweed ([7]; 250 g ai/ha, scale 0 to 100 (0 no effect, 100 complete control)): 70
Plant response rating, Field Bindweed [8, 13]: 65
Plant response rating, Field Bindweed [8, 14]: 70
Plant response rating, Field Bindweed [8, 15]: 70
Plant response rating, Field Bindweed [8, 16]: 70
Plant response rating, Field Bindweed [8, 19]: 100
Plant response rating, Field Bindweed [8, 17]: 100
Plant response rating, Field Bindweed [8, 18]: 100
Plant response rating, Mallow [9, 13]: 50
Plant response rating, Mallow [9, 14]: 60
Plant response rating, Mallow [9, 15]: 70
Plant response rating, Mallow [9, 16]: 70
Plant response rating, Mallow [9, 19]: 50
Plant response rating, Mallow [9, 17]: 80
Plant response rating, Mallow [9, 18]: 98
